Reference: patent US5268308A, “Immunoassay for pyridostigmine” (priority 1989, dated 1993)

What was measured:
Pyridostigmine Antibody = experiment: Cross-reactivity with pyridostigmine antibody in RIA (competition with labeled pyridostigmine); assay type: binding, rabbit (male New Zealand white); conditions: labeled pyridostigmine 5000 DPM; maximum tested 500 ng
Description: Antibodies to the pyridostigmine-BSA immunogen were produced by injecting male New Zealand white rabbits. Prior to injection, the immunogen was emulsified with an equal volume of complete Freund's adjuvant, purchased from Difco Laboratories. The initial immunization consisted of 0.8 mg of protein injected intracutaneously into the back of the rabbits. Booster injections containing 0.8 mg of immunogen and incomplete Freund's adjuvant were administered every one or two months for the next seven months. Blood was collected one week after each booster injection from the central ear vein. The blood was allowed to clot at room temperature and then centrifuged at 1500×g for 15 minutes. The separated serum was stored frozen at -20° C. until assayed for the presence of pyridostigmine antibody. […] FIG. 1 is the antibody dilution curve for pyridostigmine.
In the assay procedure tritiated pyridostigmine having specificity of […] was used as tracer. The dilution of tracer, antisera and pyridostigmine standards were made using 0.01 M phosphate buffer containing 150 mM sodium chloride with a pH of 7.4.. […] Both standard and sample tubes were always analyzed in duplicate. The assay was carried out according to the protocol shown in. Table 1 with the reagents were added to the assay tubes in the order shown in.
According to the protocol for the RIA of the present invention, after the addition of antisera, the contents of the tubes were mixed and incubated for 3 hours at 4° C. The antigen which bound to the antibody was separated by adding 100% saturated ammonium sulfate and centrifuging at 2500×g for 15 minutes. After aspiration of the supernatant, the precipitate was washed one time with 50% saturated ammonium sulfate; then the mixture was centrifuged and the supernatent removed. The precipitate was dissolved in 1.0 ml of distilled water, and the solution was transferred to a scintillation vial containing 10.0 ml of acquasol.
Cross-reactivity of various compounds with pyridostigmine antibody was determined in the RIA. […] Each compound was tested for cross-reactivity with the antibody. The maximum concentration of each compound tested was 500 ng.

[1] = cited from earlier work

For `CN(C)C(=O)Oc1ccc[n+](C)c1` [Pyridostigmine], the “IC 50 (50% inhibition of binding of 3H-pyridostigmine to the antibody)” value (Pyridostigmine Antibody) is listed as 4 ng, the stability ([1]; alkaline solutions) is listed as “unstable in alkaline solutions” and the solubility ([1]; water and alcohol) is listed as “freely soluble in water and alcohol”.
